From patent publication US10246496B2, “Potassium channel blockers and use thereof in the treatment of autoimmune diseases” (MONASH UNIVERSITY, priority 2014, dated 2019)

Tests used:
mKv1.3 = biological target: T1, mKv1.3 (Mus musculus, UniProt P16390); assay: Whole-cell patch clamp electrophysiology, Kv1.3 channel currents; type: cell-based
T1 construct: expressed in transfected cells
Description: Data are presented as mean±s.e.m.
Electrophysiological analysis—Cells were studied using the whole-cell configuration of a standard patch-clamp technique at RT. The bath solution contained (in mM): 160 NaCl, 4.5 KCl, 2 CaCl2, 1 MgCl2, 10 HEPES, pH 7.2, 300 mOsm. […] Kv currents were elicited by repeated 200 ms depolarising pulses from a holding potential of −80 mV to 40 mV, applied every 30 seconds. The Port-a-Patch patch clamp system (Nanion Technologies GmbH, Munich, Germany) and NPC-1 chips with 2-3.5 MΩ resistance were also utilised in conjunction. IC50 values of Kv blockers were calculated by fitting the Hill equation to the reduction of peak current measured at 40 mV.
Thus, both analogues have reduced affinity to K^+ channels and show a relatively low level of selectivity for Kv1.3 over Kv1.1. The implication is that neither Ser-3 nor Glu-3 was able to greatly discriminate between Pro377 in Kv1.3 and the corresponding Ala in Kv1.1.

Kv1.3 = Kv1.3 (Mus musculus, UniProt P16390); conditions: literature values (Kalman 1998; Pennington 2009); spread = s.e.m.; read-out: Binding affinities (IC50) Kv1.3; cited from earlier work
Chain of Kv1.3 (P16390 whole entry): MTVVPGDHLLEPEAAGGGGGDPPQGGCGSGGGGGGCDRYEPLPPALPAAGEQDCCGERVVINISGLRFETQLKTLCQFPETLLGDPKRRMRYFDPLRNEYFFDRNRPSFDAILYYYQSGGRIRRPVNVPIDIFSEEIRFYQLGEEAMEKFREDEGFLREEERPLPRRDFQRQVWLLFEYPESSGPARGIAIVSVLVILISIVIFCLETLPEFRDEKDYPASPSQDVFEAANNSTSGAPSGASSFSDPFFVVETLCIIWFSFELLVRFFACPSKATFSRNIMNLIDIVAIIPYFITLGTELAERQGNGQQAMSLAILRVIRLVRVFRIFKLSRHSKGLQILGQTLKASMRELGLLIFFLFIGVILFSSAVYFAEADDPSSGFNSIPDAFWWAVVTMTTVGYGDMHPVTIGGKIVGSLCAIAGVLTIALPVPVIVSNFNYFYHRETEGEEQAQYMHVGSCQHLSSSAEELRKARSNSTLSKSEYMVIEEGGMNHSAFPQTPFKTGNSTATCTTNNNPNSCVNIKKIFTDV

T1 sequence (P16390 whole entry): as above

| Compound | IC50 (mKv1.3) [nM] | higher affinity for Kv1.3 as compared to [ESSS]ShK (mKv1.3; relative to [ESSS]ShK) [fold] | higher affinity for Kv1.3 than ShK-192 (mKv1.3; relative to ShK-192) [fold] | IC50 (Kv1.3) [nM] |
| --- | --- | --- | --- | --- |
| CC[C@H](C)[C@@H]1NC(=O)[C@@H](NC(=O)[C@H](CO)NC(=O)[C@H](CCCNC(=N)N)NC(=O)[C@H](CO)NC(=O)[C@H](CO)NC(=O)[C@H](CCC(=O)O)NC(=O)[C@@H](N)CCC(=O)O)CSSC[C@@H](C(N)=O)NC(=O)[C@H]([C@@H](C)O)NC(=O)CNC(=O)[C@@H]2CSSC[C@@H]3NC(=O)[C@H](CCC(N)=O)NC(=O)[C@H](Cc4ccccc4)NC(=O)[C@H](C)NC(=O)[C@H]([C@@H](C)O)NC(=O)[C@H](CSSC[C@H](NC(=O)[C@H](Cc4ccccc4)NC(=O)[C@H](CO)NC(=O)[C@H](CC(C)C)NC(=O)[C@H](CCCNC(=N)N)NC(=O)[C@H](Cc4ccc(O)cc4)NC(=O)[C@H](CCCCN)NC(=O)[C@H](CCSC)NC(=O)[C@H](CO)NC(=O)[C@H](Cc4c[nH]cn4)NC(=O)[C@H](CCCCN)NC3=O)C(=O)N[C@@H](CCCNC(=N)N)C(=O)N[C@@H](CCCCN)C(=O)N[C@@H]([C@@H](C)O)C(=O)N2)NC(=O)[C@H](CCCNC(=N)N)NC(=O)[C@H](CO)NC(=O)[C@H](CCCCN)NC(=O)[C@@H]2CCCN2C(=O)[C@H]([C@@H](C)CC)NC(=O)[C@H]([C@@H](C)O)NC(=O)[C@H](CC(=O)O)NC1=O [[EESS]ShK] | 0.404 ± 0.058 | 1.6 | – | – |
| CC[C@H](C)[C@@H]1NC(=O)[C@@H](NC(=O)[C@H](CO)NC(=O)[C@H](CCCNC(=N)N)NC(=O)[C@H](CO)NC(=O)[C@H](CO)NC(=O)[C@H](Cc2c[nH]c3ccccc23)NC(=O)[C@@H](N)CCC(=O)O)CSSC[C@@H](C(=O)O)NC(=O)[C@H]([C@@H](C)O)NC(=O)CNC(=O)[C@@H]2CSSC[C@@H]3NC(=O)[C@H](CCC(N)=O)NC(=O)[C@H](Cc4ccccc4)NC(=O)[C@H](C)NC(=O)[C@H]([C@@H](C)O)NC(=O)[C@H](CSSC[C@H](NC(=O)[C@H](Cc4ccccc4)NC(=O)[C@H](CO)NC(=O)[C@H](CC(C)C)NC(=O)[C@H](CCCNC(=N)N)NC(=O)[C@H](Cc4ccc(O)cc4)NC(=O)[C@H](CCCCN)NC(=O)[C@H](CCSC)NC(=O)[C@H](CO)NC(=O)[C@H](Cc4c[nH]cn4)NC(=O)[C@H](CCCCN)NC3=O)C(=O)N[C@@H](CCCNC(=N)N)C(=O)N[C@@H](CCCCN)C(=O)N[C@@H]([C@@H](C)O)C(=O)N2)NC(=O)[C@H](CCCNC(=N)N)NC(=O)[C@H](CO)NC(=O)[C@H](CCCCN)NC(=O)[C@@H]2CCCN2C(=O)[C@H]([C@@H](C)CC)NC(=O)[C@H]([C@@H](C)O)NC(=O)[C@H](CC(=O)O)NC1=O [[EWSS]ShK] | 0.033 ± 0.007 | – | 4 | – |
| RSCIDTIPKSRCTAFQCKHSMKYRLSFCRKTCGTC [ShK] | – | – | – | 0.011 |
